Three compounds from article PMC3914206 can be followed below.

The experiment has as its target T1, panel of 442 kinases (Homo sapiens, UniProt P21709).
T1 construct: purchased KINOMEscan
T1 sequence (P21709 26-976): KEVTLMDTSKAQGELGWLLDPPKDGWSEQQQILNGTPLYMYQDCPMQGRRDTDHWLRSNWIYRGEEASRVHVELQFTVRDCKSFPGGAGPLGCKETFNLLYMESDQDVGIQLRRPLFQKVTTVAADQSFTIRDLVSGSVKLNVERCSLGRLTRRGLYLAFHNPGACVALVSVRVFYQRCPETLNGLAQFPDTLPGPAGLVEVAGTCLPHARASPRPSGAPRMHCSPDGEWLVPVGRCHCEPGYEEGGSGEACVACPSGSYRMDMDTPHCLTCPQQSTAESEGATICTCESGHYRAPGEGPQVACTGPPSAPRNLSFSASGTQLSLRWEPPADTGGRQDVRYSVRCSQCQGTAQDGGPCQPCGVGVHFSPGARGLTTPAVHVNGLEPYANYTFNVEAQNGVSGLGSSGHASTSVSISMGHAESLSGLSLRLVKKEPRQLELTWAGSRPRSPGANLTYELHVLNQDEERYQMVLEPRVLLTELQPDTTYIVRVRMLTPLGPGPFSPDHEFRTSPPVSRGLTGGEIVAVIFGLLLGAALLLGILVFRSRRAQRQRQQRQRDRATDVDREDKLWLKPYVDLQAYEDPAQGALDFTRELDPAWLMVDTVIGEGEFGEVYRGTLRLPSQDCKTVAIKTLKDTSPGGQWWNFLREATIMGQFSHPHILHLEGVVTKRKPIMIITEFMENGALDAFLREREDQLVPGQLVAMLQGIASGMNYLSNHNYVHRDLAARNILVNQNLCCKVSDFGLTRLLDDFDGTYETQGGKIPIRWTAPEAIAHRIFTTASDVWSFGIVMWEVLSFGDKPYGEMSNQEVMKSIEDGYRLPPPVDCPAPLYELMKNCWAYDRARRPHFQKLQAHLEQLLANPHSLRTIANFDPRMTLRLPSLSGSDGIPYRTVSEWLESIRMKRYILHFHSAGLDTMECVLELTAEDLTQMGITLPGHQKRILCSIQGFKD
The class given is binding. As to conditions: Compound Concentration 10 µM. The text has this:
We assessed the selectivity of members of this scaffold using the KINOMEscan methodology across a near comprehensive panel of 442 kinases [[18,27]].

On to `COc1cc(C(=O)N2CCC(N3CCN(C)CC3)CC2)ccc1Nc1ncc2c(n1)N(C1CCCC1)c1ccccc1C(=O)N2C` [Compound 25, 11-cyclopentyl-2-((2-methoxy-4-(4-(4-methylpiperazin-1-yl)piperidine-1-carbonyl)phenyl)amino)-5-methyl-5H-benzo[e]pyrimido[5,4-b][1,4]diazepin-6(11H)-one], for which the “KINOMEscan: EPHA1” value was found to be 100.
To `COc1cc(C(=O)N2CCC(N3CCN(C)CC3)CC2)ccc1Nc1ncc2c(n1)N(C)c1ccccc1C(=O)N2C` [15 (LRRK2-IN-1)] belongs 100; to `CCOc1cc(C(=O)N2CCC(N3CCN(C)CC3)CC2)ccc1Nc1ncc2c(n1)N(C1CCCC1)c1ccccc1C(=O)N2C` [Compound 26], 98.
